According to ChEMBL document CHEMBL5649166, “RIP3 induces apoptosis independent of pronecrotic kinase activity” (Mol Cell, 2014):

Tests used:
[1] = molecular target: T1, Serine/threonine-protein kinase Nek1 (Homo sapiens) (UniProt Q96PY6); assay: Inhibition of human NEK1 using myelin basic protein as substrate at 1 uM in presence of 32P-ATP by Hotspot assay relative to control; values are per cent of control
T1 sequence (whole entry): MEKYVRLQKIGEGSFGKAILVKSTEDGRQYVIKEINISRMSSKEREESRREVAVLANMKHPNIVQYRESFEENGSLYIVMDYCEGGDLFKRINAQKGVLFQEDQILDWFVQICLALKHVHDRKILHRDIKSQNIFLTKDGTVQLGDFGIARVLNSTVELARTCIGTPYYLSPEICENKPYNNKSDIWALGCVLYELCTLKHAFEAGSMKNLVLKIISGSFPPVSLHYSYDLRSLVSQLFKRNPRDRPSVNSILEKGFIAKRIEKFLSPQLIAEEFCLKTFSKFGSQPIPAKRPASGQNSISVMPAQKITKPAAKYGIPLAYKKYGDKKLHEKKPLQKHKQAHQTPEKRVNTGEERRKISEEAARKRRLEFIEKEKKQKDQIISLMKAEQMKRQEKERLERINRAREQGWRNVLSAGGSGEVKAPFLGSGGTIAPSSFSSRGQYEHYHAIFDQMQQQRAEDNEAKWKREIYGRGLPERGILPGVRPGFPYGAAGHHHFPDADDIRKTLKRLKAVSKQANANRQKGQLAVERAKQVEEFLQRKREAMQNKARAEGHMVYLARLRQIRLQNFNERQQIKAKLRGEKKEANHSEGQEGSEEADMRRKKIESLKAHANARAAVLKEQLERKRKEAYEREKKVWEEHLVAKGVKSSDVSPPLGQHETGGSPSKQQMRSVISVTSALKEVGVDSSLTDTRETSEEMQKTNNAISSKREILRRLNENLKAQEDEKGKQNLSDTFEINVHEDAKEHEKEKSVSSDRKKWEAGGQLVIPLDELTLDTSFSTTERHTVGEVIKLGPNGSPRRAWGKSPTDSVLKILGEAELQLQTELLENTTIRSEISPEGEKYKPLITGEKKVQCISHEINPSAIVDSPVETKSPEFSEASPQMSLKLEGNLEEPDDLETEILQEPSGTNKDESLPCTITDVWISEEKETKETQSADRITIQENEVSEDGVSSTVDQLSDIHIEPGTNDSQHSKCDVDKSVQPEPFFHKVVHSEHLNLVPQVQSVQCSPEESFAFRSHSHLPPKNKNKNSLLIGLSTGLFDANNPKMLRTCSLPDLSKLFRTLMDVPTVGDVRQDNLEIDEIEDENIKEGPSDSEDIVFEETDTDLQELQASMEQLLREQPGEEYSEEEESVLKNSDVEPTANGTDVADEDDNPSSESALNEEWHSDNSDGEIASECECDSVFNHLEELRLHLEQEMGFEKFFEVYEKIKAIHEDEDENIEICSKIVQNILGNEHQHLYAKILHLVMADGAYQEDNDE

[2] = molecular target: T2, Mitogen-activated protein kinase kinase kinase 5 (Homo sapiens) (UniProt Q99683); assay: Inhibition of human ASK1/MAP3K5 using myelin basic protein as substrate at 1 uM in presence of 32P-ATP by Hotspot assay relative to control; values are per cent of control
T2 sequence (whole entry): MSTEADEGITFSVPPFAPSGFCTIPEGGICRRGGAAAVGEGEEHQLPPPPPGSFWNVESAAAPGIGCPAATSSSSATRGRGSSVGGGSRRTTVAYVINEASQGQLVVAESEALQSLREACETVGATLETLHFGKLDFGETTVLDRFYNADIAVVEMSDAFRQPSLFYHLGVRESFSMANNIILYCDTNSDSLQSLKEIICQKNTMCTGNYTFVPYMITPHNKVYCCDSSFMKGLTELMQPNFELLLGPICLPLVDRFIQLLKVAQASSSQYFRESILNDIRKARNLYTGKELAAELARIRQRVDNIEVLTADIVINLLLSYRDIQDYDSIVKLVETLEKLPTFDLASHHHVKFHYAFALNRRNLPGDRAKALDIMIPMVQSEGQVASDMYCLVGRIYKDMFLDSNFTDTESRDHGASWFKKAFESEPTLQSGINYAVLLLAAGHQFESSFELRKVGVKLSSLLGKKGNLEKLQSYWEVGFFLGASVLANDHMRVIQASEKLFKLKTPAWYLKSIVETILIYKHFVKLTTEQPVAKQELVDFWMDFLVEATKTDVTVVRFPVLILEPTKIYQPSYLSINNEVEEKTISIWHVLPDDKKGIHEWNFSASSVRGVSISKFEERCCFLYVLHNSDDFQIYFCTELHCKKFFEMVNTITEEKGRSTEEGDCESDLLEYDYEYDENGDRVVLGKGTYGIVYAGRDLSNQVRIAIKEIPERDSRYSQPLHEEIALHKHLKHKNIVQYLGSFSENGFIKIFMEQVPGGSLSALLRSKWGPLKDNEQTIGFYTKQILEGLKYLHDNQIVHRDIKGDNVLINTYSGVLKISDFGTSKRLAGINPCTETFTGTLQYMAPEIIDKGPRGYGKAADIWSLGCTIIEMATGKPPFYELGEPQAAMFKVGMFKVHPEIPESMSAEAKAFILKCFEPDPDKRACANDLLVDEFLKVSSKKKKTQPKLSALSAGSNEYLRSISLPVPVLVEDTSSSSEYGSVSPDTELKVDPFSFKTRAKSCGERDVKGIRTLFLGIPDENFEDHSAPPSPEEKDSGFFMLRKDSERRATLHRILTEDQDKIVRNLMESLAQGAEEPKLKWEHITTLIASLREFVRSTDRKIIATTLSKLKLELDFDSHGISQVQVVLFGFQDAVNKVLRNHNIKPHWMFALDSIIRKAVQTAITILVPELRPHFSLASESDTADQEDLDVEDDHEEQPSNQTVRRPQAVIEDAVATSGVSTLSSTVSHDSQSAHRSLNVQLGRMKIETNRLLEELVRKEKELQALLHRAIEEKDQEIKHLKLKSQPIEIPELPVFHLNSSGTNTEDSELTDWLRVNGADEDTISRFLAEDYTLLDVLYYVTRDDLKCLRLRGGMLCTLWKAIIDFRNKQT

[3] = molecular target: PAS domain-containing serine/threonine-protein kinase (Homo sapiens) (UniProt Q96RG2); assay: Inhibition of human PASK using KKLNRTLSFAEPG as substrate at 1 uM in presence of 32P-ATP by Hotspot assay relative to control; values are per cent of control
[4] = molecular target: MAP kinase-interacting serine/threonine-protein kinase 2 (Homo sapiens) (UniProt Q9HBH9); assay: Inhibition of human MNK2 using myelin basic protein as substrate at 1 uM in presence of 32P-ATP by Hotspot assay relative to control; values are per cent of control
Chain of MAP kinase-interacting serine/threonine-protein kinase 2 (Homo sapiens) (Q9HBH9 whole entry, looked up): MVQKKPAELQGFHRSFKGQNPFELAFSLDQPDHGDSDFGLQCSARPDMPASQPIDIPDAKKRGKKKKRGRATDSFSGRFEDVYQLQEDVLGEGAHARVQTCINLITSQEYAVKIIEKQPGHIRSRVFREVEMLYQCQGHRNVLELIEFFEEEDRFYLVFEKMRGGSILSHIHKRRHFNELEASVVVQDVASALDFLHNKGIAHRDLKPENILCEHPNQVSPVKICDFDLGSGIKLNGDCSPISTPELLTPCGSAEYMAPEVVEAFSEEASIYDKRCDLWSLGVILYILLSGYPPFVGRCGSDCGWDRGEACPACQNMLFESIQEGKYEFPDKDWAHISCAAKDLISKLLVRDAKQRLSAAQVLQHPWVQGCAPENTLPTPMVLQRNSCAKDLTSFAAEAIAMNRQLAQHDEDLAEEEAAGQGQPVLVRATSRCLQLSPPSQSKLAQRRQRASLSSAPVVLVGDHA

Chain of PAS domain-containing serine/threonine-protein kinase (Homo sapiens) (Q96RG2 whole entry, the tested form may be a part): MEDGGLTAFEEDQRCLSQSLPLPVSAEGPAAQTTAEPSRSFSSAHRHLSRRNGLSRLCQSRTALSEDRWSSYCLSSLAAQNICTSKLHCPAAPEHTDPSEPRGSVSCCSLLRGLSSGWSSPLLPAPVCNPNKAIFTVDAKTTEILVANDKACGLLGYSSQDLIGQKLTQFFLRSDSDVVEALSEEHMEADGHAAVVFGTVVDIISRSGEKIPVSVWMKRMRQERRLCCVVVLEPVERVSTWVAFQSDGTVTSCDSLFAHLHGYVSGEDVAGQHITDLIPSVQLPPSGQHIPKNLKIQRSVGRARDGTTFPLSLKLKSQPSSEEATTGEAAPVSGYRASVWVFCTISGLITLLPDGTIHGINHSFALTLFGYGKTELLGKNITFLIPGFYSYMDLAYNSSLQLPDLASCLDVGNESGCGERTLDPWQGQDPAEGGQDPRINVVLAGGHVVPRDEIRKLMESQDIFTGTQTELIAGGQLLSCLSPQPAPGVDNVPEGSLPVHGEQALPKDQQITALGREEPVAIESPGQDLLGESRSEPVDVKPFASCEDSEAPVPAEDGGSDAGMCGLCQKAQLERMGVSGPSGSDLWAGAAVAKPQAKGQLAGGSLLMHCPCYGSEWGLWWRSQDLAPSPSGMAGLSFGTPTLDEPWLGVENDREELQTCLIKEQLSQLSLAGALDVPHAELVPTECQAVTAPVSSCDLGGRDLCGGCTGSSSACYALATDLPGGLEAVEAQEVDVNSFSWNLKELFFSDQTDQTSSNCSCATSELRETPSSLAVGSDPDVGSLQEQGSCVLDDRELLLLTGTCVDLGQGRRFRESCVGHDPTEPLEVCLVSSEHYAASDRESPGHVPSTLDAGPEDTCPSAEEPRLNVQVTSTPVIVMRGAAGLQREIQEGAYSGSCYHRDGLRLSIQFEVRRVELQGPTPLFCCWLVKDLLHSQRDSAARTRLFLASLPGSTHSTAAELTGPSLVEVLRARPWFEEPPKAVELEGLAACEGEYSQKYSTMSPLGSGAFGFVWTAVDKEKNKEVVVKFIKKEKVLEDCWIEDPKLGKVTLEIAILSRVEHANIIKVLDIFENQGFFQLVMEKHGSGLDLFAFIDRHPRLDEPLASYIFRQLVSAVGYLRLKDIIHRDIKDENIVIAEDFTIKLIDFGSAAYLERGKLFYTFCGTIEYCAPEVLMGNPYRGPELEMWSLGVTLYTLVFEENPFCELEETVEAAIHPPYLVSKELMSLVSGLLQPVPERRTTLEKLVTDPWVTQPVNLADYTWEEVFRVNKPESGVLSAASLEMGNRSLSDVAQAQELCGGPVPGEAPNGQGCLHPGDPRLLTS

Structure (SMILES): CNC(=O)c1ccc2c(c1)ncn2-c1ccc(CC(=O)OC(C)(C)C)cc1
- residual activity [1]: 96.4%
- residual activity [2]: 96.7%
- residual activity [3]: 99.8%
- residual activity [4]: 70.6%

Structure (SMILES): Cc1cc(-c2cnc(N)c3c(-c4ccc5scnc5c4)csc23)n(C)n1
- residual activity [1]: 97.3%
- residual activity [2]: 102%
- residual activity [3]: 93.1%
- residual activity [4]: 97.9%

Structure (SMILES): CC(C)S(=O)(=O)c1ccc2nccc(Nc3ccc4scnc4c3)c2c1
- residual activity [1]: 88.2%
- residual activity [2]: 97.6%
- residual activity [3]: 96.5%
- residual activity [4]: 96%
